biological target: Coagulation factor X (Homo sapiens, UniProt P00742); assay: Inhibition of human Coagulation factor X was determined
Sequence (P00742 41-179 limits assumed): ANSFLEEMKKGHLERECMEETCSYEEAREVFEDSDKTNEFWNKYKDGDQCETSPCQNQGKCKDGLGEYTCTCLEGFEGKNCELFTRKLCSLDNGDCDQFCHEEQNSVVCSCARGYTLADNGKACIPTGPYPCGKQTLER
Sequence (P00742 235-488 limits assumed): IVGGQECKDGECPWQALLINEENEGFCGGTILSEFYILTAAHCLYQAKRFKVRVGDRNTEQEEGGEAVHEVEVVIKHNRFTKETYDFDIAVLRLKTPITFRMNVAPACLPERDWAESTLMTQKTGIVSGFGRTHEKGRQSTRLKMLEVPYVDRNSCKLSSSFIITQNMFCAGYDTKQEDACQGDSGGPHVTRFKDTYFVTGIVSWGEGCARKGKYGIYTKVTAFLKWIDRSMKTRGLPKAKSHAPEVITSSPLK

**Q.** For `Cc1c(F)c(Oc2cccc(CC(=O)C(C)C)c2)nc(Oc2cccc(C(=N)N)c2)c1F`, which Ki is on record?
**A.** Its Ki is 2.1 µM.

**Q.** With `CC(=O)Cc1cccc(Oc2nc(Oc3cccc(C(=N)N)c3)c(F)c(C)c2F)c1` as the molecule, how does the Ki read?
**A.** Its Ki is 1.4 µM.

**Q.** Which Ki does the source give for `CN1CC(C)(C)N=C1c1cccc(Oc2cc(C(=O)O)cc(Oc3cc(C(=N)N)ccc3O)n2)c1` here?
**A.** The Ki was 0.81 µM.

**Q.** `Cc1c(F)c(Oc2cccc(C(=N)N)c2)nc(Oc2cccc(N3CCCCC3)c2)c1F` was tested. Which Ki did it give?
**A.** The Ki was 0.65 µM.

Source: ChEMBL document CHEMBL1145939, “Analyses of activity for factor Xa inhibitors based on Monte Carlo simulations” (J Med Chem, 2003)
